EC50 data for 84 compounds are collected here from PubChem BioAssay AID1959 (Broad Institute, 2009).

Activity calls are given as the source filed them.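 The calls were made as follows: active = growth-inhibition EC50 no more than tenfold above the top tested dose; inconclusive = flat fit between 30% and 70% inhibition, or unreliable fit; inactive = EC50 more than tenfold above the top tested dose.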

This test concerns E. coli NEB5alpha growth, BacTiter-Glo luminescence, 4 h. As to the kind of experiment: Escherichia coli growth inhibition, dose response, counter-screen for MEX-5/POS-1 RNA-binding inhibitor project, luminescence, NEB5alpha (AID 1959;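 also: pUC19-transformed ampicillin-resistant cells grown in LB with ampicillin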). (In general: A counterscreen serves to expose hits that act by an unwanted route or on another target.)
Usually EC50 stands for the concentration giving half of the maximal effect. As for `Cc1ccc(NC(=O)CN2C(=O)N/C(=C\c3cccn3-c3cccc(C(=O)O)c3)C2=O)cc1`, the EC50 was > 11 µM (inactive).

As for `Cc1c(NC(=O)c2coc(=O)c(Br)c2)c(=O)n(-c2ccccc2)n1C`, the EC50 was > 11 µM (inactive). With `CC(C)C1Nc2c(O)cc(Cl)c([N+](=O)[O-])c2C2C=CCC21` (centres undefined) the figure was > 11 µM (inactive); with `N#Cc1c(N)n(-c2cccc(C(=O)O)c2)c2nc3ccccc3nc12`, > 11 µM (inactive). With `COc1ccc(C(=O)NNC(=O)c2cnccn2)cc1[N+](=O)[O-]` the figure was > 11 µM (inactive). With `CCN(CC)C(=O)CSc1nnc2nnc3cc(Cl)ccc3n12` the figure was > 11 µM (inactive); with `O=C(O)C(=O)/C(=C\c1ccsc1)c1ccc2ccccc2n1`, > 11 µM (inactive); with `COc1ccc2c(c1)c1nc3ccccc3nc1n2Cc1ccc(OC)c(OC)c1`, > 11 µM (inactive).

For the compound `CC(=O)C1=C(c2ccccc2)NC(=O)NC1c1ccc(O)c(O)c1` (centres undefined), the EC50 was > 11 µM (inactive). With `CCc1c(C(=O)NNC(=S)Nc2ccc(S(=O)(=O)Nc3ncccn3)cc2)csc1C` the figure was > 11 µM (inactive); with `CCN(CC)CCN(Cc1cc2ccc(C)c(C)c2[nH]c1=O)C(=S)NCc1ccco1`, > 11 µM (inactive). As to `COc1ccc(C2C(C(=O)c3ccco3)=C(O)C(=O)N2c2nnc(C)s2)cc1OC` (centres undefined), the EC50 is > 11 µM (inactive). The same measure for `Cc1ccccc1CSCCNC(=S)Nc1ccccc1`: > 11 µM (inactive); for `O=C(NNC(=O)c1ccccc1[N+](=O)[O-])c1csc(N2CCOCC2)n1`: > 11 µM (inactive); for `COC(=O)CCC(=O)OC1(C)C(=O)C2=CN(CCCOC(C)C)C(c3ccc(OC)cc3)=CC2=C(Br)C1=O` (centres undefined): > 11 µM (inactive). The same measure for `O=C(N=c1ccn(-c2nc3ccccc3nc2NS(=O)(=O)c2ccccc2)cc1)c1ccccc1Cl`: > 11 µM (inactive); for `COc1ccc(NC(=O)C2Cc3ccccc3CN2C(=O)c2ccccc2)cn1` (centres undefined): > 11 µM (inactive). For `Cc1ccc2[nH]c(O)c(N=Nc3ccccc3C)c2c1`, the EC50 was > 11 µM (inactive). With `O=C(Cn1cc(C=C2C(=O)NC(=O)NC2=O)c2ccccc21)NCC1CCCO1` (centres undefined) the figure was > 11 µM (inactive); with `COc1cccc(NS(=O)(=O)c2ccc3c(c2)C2C=CCC2C(c2ccc(C(=O)O)cc2)N3)c1` (centres undefined), > 11 µM (inactive); with `C[n+]1c(-c2ccccc2)c2cc(N)ccc2c2ccc(N)cc21`, > 11 µM (inactive).

For `COc1ccccc1-c1cnn2c(NCc3ccccc3)cc(C)nc12`, the EC50 is > 11 µM (inactive).

For `O=C(O)c1cccc(-n2cccc2/C=C2/NC(=O)N(Cc3ccccc3F)C2=O)c1`, the EC50 is > 11 µM (inactive).

Turning to `Cc1ccccc1N=Nc1c(O)n(C)c2ccccc12`, the EC50 was > 11 µM (inactive). Take `COc1ccc(N2C(=O)/C(=C/c3ccc(N(C)C)o3)C(=O)NC2=S)cc1`: the EC50 is > 11 µM (inactive).

As to `COC(=O)CCCC1=CC2=CC(=O)C(C)(OC(=O)C3CCCC3)C(=O)C2=CO1` (centres undefined), the EC50 was > 11 µM (inactive). The same measure for `COc1ccc(C2=CC3=C(Br)C(=O)C(C)(OC(=O)C4CCCC4)C(=O)C3=CO2)cc1` (centres undefined): > 11 µM (inactive); for `C=CCc1cccc(/C=N/n2cnnc2)c1O`: > 11 µM (inactive); for `O=S(=O)([N-]c1nc2ccccc2nc1-[n+]1ccc(CCCc2ccccc2)cc1)c1cccs1`: > 11 µM (inactive). The same measure for `COc1ccc(C(=O)N=c2c(C#N)cc3c(=O)n4cccc(C)c4nc3n2Cc2ccco2)cc1`: > 11 µM (inactive). The same measure for `Cc1ccccc1C1=N/C(=C/c2cccs2)C(=O)O1`: > 11 µM (inactive); for `NC(=O)[C@@H]1CCCN1Cc1c(C(=O)N2CCc3ccccc3C2)nc2ccc(Cl)cn12`: > 11 µM (inactive).

For `Cc1ccc(N/N=C/c2c(C)c(C#N)c(=O)n(C)c2O)cc1C`, the EC50 was > 11 µM (inactive). With `Cc1ccc(/C=C2/Sc3ccc(C(=O)N4CCC5(CC4)OCCO5)cc3NC2=O)cc1` the figure was > 11 µM (inactive); with `CC(=O)c1cc(NC(=O)c2cccc(C(F)(F)F)c2)c(=O)oc1/C=C/N(C)C`, > 11 µM (inactive); with `CCC1(c2ccccc2)NC(=O)N(CC(=O)NCc2ccc(F)cc2)C1=O` (centres undefined), > 11 µM (inactive). With `CCCCC1=CC2=CC(=O)C(C)(OC(=O)CCc3ccccc3)C(=O)C2=CO1` (centres undefined) the figure was > 11 µM (inactive).

Regarding `O=S(=O)(NNC(=S)Nc1ccc(S(=O)(=O)Nc2ncccn2)cc1)c1ccc(Br)cc1`, the EC50 was > 11 µM (inactive). The same measure for `CC1(C)CC(=O)C2=C(C1)Nc1ccccc1S2`: > 11 µM (inactive). As to `O=C1C=C(O)c2c(O)cc(O)c(O)c2C1=O`, the EC50 was > 11 µM (inactive). With `CCCC(C)NC(=O)c1ccc(C2SCC(=O)N2Cc2ccco2)cc1` (centres undefined) the figure was > 11 µM (inactive); with `N=c1c(C(=O)NCC2CCCO2)cc2c(=O)n3ccccc3nc2n1Cc1cccnc1` (centres undefined), > 11 µM (inactive). The same measure for `O=C1c2cc(F)ccc2-n2c1nc1ccccc1c2=O`: > 11 µM (inactive). With `O=C(O)c1cc(-n2cccc2)ccc1N1CCOCC1` the figure was > 11 µM (inactive); with `Nc1c(C(=O)c2ccc(Cl)cc2)sc2nsc(SCCN3CCOCC3)c12`, > 11 µM (inactive); with `CC(C)OCCCn1c(=NC(=O)c2cccs2)c(C#N)cc2c(=O)n3ccccc3nc21`, > 11 µM (inactive). Regarding `O=C(O)C(=O)/C(=C\c1cccc2ccccc12)c1ccc2ccccc2n1`, the EC50 is > 11 µM (inactive).

As to `N#CCC(N)=C(C#N)C#N`, the EC50 is > 11 µM (inactive). With `O=c1oc2ccc(Cl)cc2nc1/C=C(\O)c1ccco1` the figure was > 11 µM (inactive); with `CC1C(=O)NN=C1C(=O)N/N=C/c1ccco1` (centres undefined), > 11 µM (inactive); with `CCCN1CCc2cc(O)cc3c2[C@H]1Cc1ccc(O)c(O)c1-3`, > 11 µM (inactive). On to `Cc1cc(/C=C2\C(=O)NC(=O)N(c3ccc(F)cc3)C2=O)c(C)n1-c1ccc(C(=O)O)cc1`, for which the EC50 was > 11 µM (inactive). `CCOC(=O)C1Nc2ccc(Br)cc2C2C=CCC12` (centres undefined): the EC50 is > 11 µM (inactive). With `C=CCn1c(Cc2nc3ccccc3[nH]2)n[nH]c1=S` the figure was > 11 µM (inactive). The same measure for `CC(=O)c1sc2nc(-c3cccs3)cc(C(F)(F)F)c2c1N`: > 11 µM (inactive); for `Cc1cccc(C(=O)NCCCNC(=O)c2cccc(C)c2)c1`: > 11 µM (inactive); for `CCOC(=O)COn1c(=O)c(-c2cc3ccccc3o2)[n+]([O-])c2ccccc21`: > 11 µM (inactive). The same measure for `CCN(CC)Cc1cc(O)c(CN(CC)CC)cc1O`: > 11 µM (inactive); for `COc1ccc(S(=O)(=O)C(C#N)c2nc3ccccc3nc2N2CCC(C)CC2)cc1` (centres undefined): > 11 µM (inactive); for `O=[N+]([O-])c1cccc(-c2cn3nc(-c4ccccc4)c(-c4ccccc4)nc3n2)c1`: > 11 µM (inactive). `C=CCOc1ccc(C2C(C(=O)c3cccs3)=C(O)C(=O)N2c2nnc(C)s2)cc1` (centres undefined): the EC50 was > 11 µM (inactive). With `Cc1ccc(-c2[nH]c3cc(C(N)=O)ccc3c(=O)c2O)cc1` the figure was > 11 µM (inactive); with `NC(=O)c1snnc1-c1ccccc1`, > 11 µM (inactive); with `CCNC(=O)c1cc2c(=O)n3cccc(C)c3nc2n(CCc2ccccc2)c1=N`, > 11 µM (inactive). With `COc1ccc(C2C(C#N)=C(N)OC3=C2C(=O)CC(C)(C)C3)cc1OC` (centres undefined) the figure was > 11 µM (inactive); with `c1ccc(-c2cn3nc4c(nc3n2)CCCC4)cc1`, > 11 µM (inactive). The same measure for `COC(=O)c1ccc(-n2c(C)cc(C(=O)COC(=O)CNS(=O)(=O)c3ccc(C)cc3)c2C)cc1`: > 11 µM (inactive); for `O=C(O)c1ccccc1NS(=O)(=O)c1ccc(NNC(=S)Nc2ccc(OC(F)F)cc2)c([N+](=O)[O-])c1`: > 11 µM (inactive). With `COc1ccc2nc(SCC(=O)Nc3nonc3C)[nH]c2c1`, the EC50 is > 11 µM (inactive).

On to `COc1cc2c(cc1OC)-c1c(OC)c(OC)cc3ccnc(c13)C2=O`, for which the EC50 is > 11 µM (inactive).

With `Nc1cccc2c1C(=O)N(Cc1nnc(-c3ccccc3Br)o1)C2=O`, the EC50 was > 11 µM (inactive). With `Nc1nnc2c(n1)CCCC2` the figure was > 11 µM (inactive); with `COc1cc(OC)c(OC)cc1/C=C1\Oc2cc(OS(C)(=O)=O)ccc2C1=O`, > 11 µM (inactive). The same measure for `COc1ccc(N=Cc2c(O)n(-c3cccc(C)n3)c(=O)c3ccccc23)cc1`: > 11 µM (inactive); for `O=c1[nH]c(=O)n(CCc2ccccc2)c(O)c1C=NCCCn1ccnc1`: > 11 µM (inactive). The same measure for `Cc1ccc(NC(=O)CN2C(=O)S/C(=C\c3cccn3-c3cccc(C(=O)O)c3)C2=O)cc1C`: > 11 µM (inactive). Regarding `O=C(O)C1Nc2c(C(F)(F)F)ccc(Cl)c2C2C=CCC12` (centres undefined), the EC50 is > 11 µM (inactive). The same measure for `O=c1[nH]c(=O)n(CCc2ccc(F)cc2)c(O)c1C=NCCCn1ccnc1`: > 11 µM (inactive); for `O=C(c1ccccc1)[C@@H]1[C@@H]2C(=O)N(c3ccc(F)cc3)C(=O)[C@@H]2C2CCCN21` (some centres undefined): > 11 µM (inactive); for `CN1CCCc2cc3c(C(F)(F)F)cc(=O)oc3nc21`: > 11 µM (inactive). With `CCn1cc(C(=O)NCc2ccccn2)c(=O)c2cc(S(=O)(=O)N3CCCCC3)ccc21` the figure was > 11 µM (inactive); with `C[C@@H]1O[C@@H](OC2C(O)C(OCCc3ccc(O)c(O)c3)OC(CO)C2OC(=O)/C=C/c2ccc(O)c(O)c2)[C@H](O)[C@H](O)[C@H]1O` (some centres undefined), > 11 µM (inactive).

In the case of `Cc1ccc(N=Nc2c(O)[nH]c3ccc(F)cc23)cc1`, the EC50 was > 11 µM (inactive). For `CCC(NC(C)C)C(O)c1ccc(O)c(O)c1` (centres undefined), the EC50 was > 11 µM (inactive).
